This passage reports AC50 results from ChEMBL document CHEMBL5291721, “A preclinical secondary pharmacology resource illuminates target-adverse drug reaction associations of marketed drugs” (Nat Commun, 2023).

Bounds are passed on as bounds.

Assay [1] deals with T1, Adenosine receptor A1 (Homo sapiens, UniProt P30542).
T1 sequence (P30542 whole entry): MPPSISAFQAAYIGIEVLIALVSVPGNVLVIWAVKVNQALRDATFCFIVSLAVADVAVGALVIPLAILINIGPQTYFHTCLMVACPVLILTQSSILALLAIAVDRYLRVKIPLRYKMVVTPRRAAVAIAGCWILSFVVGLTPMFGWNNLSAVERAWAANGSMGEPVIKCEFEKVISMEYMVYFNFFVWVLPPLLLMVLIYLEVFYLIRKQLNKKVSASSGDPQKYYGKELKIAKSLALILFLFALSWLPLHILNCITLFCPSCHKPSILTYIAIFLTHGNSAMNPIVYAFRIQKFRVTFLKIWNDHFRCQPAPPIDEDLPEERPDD

Assay [2] has as its target Vasopressin V1a receptor (Homo sapiens, UniProt P37288).
Assay [3] deals with Voltage-dependent L-type calcium channel subunit alpha-1C (Rattus norvegicus, UniProt P22002). Type of assay: functional.
Chain of Voltage-dependent L-type calcium channel subunit alpha-1C (P22002 whole entry): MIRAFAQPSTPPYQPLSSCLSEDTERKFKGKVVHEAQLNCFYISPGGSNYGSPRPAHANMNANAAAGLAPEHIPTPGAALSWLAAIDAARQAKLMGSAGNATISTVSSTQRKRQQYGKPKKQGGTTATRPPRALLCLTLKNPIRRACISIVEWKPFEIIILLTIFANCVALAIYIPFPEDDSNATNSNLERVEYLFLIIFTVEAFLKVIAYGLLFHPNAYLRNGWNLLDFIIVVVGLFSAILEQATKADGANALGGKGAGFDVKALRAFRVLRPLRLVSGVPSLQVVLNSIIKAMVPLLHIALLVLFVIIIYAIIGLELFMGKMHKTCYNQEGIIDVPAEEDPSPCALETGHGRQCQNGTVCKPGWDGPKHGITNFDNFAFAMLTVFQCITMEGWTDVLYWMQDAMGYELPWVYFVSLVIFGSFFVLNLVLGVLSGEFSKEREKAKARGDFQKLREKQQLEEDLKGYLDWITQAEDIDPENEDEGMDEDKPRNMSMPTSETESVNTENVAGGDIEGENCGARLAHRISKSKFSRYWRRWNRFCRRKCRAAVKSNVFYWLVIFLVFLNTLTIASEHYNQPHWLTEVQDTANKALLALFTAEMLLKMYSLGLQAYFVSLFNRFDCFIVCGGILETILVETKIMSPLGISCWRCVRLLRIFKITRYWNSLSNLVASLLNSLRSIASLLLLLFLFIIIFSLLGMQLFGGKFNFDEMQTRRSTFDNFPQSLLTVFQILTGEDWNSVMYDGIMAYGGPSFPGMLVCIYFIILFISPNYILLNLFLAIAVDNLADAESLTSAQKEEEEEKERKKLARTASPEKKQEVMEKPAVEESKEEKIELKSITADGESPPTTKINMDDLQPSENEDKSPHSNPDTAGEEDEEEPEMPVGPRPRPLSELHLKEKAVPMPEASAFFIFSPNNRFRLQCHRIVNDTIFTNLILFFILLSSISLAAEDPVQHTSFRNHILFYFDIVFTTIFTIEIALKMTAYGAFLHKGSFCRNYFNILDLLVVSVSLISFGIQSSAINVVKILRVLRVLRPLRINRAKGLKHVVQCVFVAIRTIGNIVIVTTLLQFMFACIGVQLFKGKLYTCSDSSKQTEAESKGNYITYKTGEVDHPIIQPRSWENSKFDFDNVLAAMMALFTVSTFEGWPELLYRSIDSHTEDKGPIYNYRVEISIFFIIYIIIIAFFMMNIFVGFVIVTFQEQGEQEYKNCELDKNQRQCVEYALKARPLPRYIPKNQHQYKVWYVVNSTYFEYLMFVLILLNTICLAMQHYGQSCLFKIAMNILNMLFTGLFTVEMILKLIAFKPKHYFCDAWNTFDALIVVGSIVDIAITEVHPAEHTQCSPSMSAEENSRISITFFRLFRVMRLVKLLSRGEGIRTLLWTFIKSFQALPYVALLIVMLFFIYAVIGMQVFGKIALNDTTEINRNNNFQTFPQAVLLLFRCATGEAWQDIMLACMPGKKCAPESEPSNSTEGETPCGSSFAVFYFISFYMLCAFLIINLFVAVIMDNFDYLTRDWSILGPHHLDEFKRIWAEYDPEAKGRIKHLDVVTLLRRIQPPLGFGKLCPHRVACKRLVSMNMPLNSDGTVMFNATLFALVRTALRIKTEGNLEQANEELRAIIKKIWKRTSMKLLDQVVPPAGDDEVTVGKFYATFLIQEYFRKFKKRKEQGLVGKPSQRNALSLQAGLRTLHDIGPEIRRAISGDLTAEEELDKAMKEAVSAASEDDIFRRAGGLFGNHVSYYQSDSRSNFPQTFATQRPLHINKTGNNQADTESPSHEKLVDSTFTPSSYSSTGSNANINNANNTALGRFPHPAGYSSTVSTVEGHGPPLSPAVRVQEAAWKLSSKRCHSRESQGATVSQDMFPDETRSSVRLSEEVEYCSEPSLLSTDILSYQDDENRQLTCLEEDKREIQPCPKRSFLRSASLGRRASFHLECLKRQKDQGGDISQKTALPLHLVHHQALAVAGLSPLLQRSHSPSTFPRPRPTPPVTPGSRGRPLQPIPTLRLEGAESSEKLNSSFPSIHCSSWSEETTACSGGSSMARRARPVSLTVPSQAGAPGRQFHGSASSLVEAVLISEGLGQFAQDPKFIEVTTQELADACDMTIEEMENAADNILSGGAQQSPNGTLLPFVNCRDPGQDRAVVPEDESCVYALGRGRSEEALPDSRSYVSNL
The target of assay [4] is T2, Cholecystokinin receptor type A (Homo sapiens, UniProt P32238).
T2 sequence (P32238 whole entry): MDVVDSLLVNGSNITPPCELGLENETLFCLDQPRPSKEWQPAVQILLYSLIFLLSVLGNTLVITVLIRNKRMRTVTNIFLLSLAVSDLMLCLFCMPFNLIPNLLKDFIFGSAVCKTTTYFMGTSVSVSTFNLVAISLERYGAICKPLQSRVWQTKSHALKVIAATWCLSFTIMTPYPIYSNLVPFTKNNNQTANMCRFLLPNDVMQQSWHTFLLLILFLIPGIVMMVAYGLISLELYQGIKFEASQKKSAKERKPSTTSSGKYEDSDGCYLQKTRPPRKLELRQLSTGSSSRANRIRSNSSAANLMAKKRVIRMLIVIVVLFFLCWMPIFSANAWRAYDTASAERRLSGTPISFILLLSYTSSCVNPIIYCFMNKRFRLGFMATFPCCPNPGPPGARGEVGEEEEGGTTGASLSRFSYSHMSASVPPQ

Assay [5] addresses Neuronal acetylcholine receptor subunit alpha-4 (Homo sapiens, UniProt P43681).
In assay [6] the target is Cannabinoid receptor 1 (Homo sapiens, UniProt P21554).
Chain of Cannabinoid receptor 1 (P21554 whole entry): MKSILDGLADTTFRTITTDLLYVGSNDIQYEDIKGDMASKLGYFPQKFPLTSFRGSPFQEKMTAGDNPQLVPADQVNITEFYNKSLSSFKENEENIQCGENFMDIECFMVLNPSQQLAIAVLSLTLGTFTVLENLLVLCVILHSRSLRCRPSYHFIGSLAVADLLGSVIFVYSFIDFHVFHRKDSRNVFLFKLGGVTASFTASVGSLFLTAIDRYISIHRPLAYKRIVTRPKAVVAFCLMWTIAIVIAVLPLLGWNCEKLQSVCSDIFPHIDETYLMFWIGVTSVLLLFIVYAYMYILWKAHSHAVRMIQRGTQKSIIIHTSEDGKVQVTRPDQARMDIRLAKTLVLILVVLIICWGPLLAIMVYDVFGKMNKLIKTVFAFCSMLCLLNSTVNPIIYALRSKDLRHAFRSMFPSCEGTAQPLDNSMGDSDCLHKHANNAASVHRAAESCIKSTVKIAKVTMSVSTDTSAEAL
Assay [7] concerns the target Growth hormone secretagogue receptor type 1 (Homo sapiens, UniProt Q92847).
Assay [8] concerns the target Motilin receptor (Homo sapiens, UniProt O43193).
Assay [9] has as its target T3, Mu-type opioid receptor (Homo sapiens, UniProt P35372). Description: biochemical. The assay is classed as functional.
The target in assay [10] is T4, Equilibrative nucleoside transporter 1 (Homo sapiens, UniProt Q99808).
T4 sequence (Q99808 whole entry): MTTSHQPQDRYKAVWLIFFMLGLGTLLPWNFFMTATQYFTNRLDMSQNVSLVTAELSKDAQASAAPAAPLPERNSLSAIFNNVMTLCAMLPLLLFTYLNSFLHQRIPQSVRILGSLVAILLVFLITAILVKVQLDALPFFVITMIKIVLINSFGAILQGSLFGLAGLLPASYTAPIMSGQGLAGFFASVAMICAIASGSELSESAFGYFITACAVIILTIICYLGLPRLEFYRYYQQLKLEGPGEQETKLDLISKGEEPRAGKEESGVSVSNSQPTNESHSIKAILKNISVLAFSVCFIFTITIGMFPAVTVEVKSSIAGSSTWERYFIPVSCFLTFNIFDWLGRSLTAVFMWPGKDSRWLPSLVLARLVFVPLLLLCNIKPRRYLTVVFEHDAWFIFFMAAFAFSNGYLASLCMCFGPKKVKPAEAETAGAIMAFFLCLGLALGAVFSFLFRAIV

In assay [11] the target is T5, Thromboxane A2 receptor (Homo sapiens, UniProt P21731).
T5 sequence (P21731 whole entry): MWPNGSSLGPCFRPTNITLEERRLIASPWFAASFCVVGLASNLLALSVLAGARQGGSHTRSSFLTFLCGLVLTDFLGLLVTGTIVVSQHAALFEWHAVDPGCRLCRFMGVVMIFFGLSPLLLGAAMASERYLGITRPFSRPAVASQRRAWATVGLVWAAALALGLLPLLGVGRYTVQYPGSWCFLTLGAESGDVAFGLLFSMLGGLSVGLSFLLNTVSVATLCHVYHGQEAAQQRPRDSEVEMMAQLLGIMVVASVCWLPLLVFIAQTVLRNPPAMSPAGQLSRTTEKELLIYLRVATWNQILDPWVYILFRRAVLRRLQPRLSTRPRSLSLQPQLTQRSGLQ

In assay [12] the target is T3, Mu-type opioid receptor.
The target of assay [13] is T1, Adenosine receptor A1. The source holds these as a separate data set.
For assay [14], the target named is T6, Endothelin-1 receptor (Homo sapiens, UniProt P25101).
T6 sequence (P25101 whole entry): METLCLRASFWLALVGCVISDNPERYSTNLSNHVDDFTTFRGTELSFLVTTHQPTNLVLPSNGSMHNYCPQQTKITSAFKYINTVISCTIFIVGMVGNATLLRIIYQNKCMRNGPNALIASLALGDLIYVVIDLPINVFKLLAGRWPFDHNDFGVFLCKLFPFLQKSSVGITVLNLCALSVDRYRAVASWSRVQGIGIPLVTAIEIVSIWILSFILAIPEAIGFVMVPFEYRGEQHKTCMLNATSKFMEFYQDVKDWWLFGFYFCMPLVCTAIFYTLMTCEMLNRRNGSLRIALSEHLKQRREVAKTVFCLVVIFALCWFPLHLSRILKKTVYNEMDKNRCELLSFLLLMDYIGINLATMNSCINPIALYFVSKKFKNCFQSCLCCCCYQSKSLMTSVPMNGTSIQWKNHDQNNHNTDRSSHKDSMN

Chain of Neuronal acetylcholine receptor subunit alpha-4 (P43681 whole entry): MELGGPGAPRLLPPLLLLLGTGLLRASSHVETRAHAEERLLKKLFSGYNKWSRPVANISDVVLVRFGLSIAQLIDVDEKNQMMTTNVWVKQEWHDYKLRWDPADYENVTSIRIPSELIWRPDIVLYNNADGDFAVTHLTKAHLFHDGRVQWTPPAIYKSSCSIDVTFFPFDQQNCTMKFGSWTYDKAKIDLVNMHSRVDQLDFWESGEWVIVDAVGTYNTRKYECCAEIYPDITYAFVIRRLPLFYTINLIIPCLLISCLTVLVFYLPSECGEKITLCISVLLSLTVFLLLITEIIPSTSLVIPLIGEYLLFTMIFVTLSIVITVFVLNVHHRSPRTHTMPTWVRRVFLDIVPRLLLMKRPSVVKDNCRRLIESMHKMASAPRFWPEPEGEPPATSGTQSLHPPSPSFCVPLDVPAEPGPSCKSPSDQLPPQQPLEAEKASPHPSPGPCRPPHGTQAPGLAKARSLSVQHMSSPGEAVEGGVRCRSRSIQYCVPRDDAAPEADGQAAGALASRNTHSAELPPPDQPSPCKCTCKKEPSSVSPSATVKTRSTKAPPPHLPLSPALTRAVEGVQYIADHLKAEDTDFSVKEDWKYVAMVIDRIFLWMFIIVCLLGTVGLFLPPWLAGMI
Chain of Growth hormone secretagogue receptor type 1 (Q92847 whole entry): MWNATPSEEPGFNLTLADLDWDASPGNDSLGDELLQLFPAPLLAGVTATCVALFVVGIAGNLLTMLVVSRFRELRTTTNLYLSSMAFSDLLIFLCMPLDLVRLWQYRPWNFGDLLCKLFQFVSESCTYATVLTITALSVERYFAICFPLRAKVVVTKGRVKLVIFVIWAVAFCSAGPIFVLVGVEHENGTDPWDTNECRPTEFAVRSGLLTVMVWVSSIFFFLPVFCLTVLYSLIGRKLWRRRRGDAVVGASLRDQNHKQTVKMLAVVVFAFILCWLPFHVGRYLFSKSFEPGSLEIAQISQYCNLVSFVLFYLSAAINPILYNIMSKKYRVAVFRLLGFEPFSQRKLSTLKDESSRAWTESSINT
Chain of Motilin receptor (O43193 whole entry): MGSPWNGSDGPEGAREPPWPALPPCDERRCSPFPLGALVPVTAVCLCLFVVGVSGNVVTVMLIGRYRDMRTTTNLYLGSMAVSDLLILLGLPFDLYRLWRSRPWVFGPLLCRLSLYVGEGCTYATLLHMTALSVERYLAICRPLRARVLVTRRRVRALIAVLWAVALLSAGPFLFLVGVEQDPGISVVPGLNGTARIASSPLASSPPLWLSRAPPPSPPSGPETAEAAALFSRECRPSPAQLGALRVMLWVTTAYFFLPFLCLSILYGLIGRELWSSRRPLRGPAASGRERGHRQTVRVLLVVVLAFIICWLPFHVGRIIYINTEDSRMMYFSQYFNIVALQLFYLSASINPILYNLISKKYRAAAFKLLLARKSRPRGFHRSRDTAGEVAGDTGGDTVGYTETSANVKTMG
T3 sequence (P35372 whole entry): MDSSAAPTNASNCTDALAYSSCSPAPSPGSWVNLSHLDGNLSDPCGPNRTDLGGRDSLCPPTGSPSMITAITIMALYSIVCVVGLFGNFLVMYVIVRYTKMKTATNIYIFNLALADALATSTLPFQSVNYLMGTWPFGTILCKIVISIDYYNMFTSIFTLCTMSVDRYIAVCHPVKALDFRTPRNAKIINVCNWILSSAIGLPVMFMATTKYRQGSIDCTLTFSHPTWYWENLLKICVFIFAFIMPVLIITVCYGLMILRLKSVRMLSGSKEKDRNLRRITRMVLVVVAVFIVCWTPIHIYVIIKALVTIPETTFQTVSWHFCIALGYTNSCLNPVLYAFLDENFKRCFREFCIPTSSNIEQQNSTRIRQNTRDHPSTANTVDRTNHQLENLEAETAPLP
Chain of Vasopressin V1a receptor (P37288 whole entry): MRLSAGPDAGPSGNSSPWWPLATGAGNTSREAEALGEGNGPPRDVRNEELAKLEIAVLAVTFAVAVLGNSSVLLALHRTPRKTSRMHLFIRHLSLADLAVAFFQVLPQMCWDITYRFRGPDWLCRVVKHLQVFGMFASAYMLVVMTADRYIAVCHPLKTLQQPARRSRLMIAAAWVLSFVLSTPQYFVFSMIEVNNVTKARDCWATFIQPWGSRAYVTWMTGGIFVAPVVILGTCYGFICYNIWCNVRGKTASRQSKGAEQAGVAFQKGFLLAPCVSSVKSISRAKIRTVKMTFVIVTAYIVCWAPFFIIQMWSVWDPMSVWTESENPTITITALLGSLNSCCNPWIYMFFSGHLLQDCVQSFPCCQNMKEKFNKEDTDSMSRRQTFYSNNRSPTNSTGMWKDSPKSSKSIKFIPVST

`CC(=O)N[C@H]1[C@H]([C@H](O)[C@H](O)CO)OC(C(=O)O)=C[C@@H]1N=C(N)N` [ZANAMIVIR]: the AC50 in assay [1], in assay [2], in assay [3], in assay [4], in assay [5] and in assay [6] was above 30 µM throughout. Further, the AC50 in assay [7], in assay [8], in assay [9], in assay [10], in assay [11] and in assay [12] was above 30 µM throughout.

Regarding `CCOC(=O)CC(SP(=S)(OC)OC)C(=O)OCC` (configuration not stated) [MALATHION], in assay [13], the AC50 came to 11.5 µM.

With `CC(C)(N)Cc1ccc(Cl)cc1` [CHLORPHENTERMINE], the AC50 was above 30 µM in assay [1]; above 30 µM in [2]; above 10 µM in [3]; above 30 µM in assay [4]; 10 µM in assay [5]; above 10 µM in assay [6]. In addition, the AC50 is above 30 µM in assay [14]; above 30 µM in [7]; above 10 µM in [8]; above 30 µM in [10]; above 30 µM in assay [11]; above 30 µM in assay [12].

On to `O=P(O)(O)C(O)(Cc1cccnc1)P(=O)(O)O` [RISEDRONIC ACID], for which the AC50 in assay [1], in [2], in [3], in assay [4], in [5] and in assay [6] was above 30 µM throughout. For the same compound, the AC50 in assay [14], in [7], in [8], in assay [9], in assay [10] and in assay [11] was above 30 µM in each case. The compound further displayed a concentration at half-maximal activity (AC50) in assay [12] above 30 µM.

Regarding `CC(C)NCC1CCc2cc(CO)c([N+](=O)[O-])cc2N1` (configuration not stated) [OXAMNIQUINE], the AC50 in assay [1], in [2], in [3], in assay [4], in [5] and in [6] was above 10 µM in each case. The AC50 was above 10 µM in assay [7]; above 10 µM in assay [8]; above 30 µM in [10]; above 10 µM in [11]; above 30 µM in assay [12].

Regarding `CN(C)CCCN1c2ccccc2Sc2ccccc21` [PROMAZINE], the AC50 in assay [1] is above 30 µM; in assay [2], above 10 µM; in assay [3] it was above 10 µM; in [4], above 30 µM; in [6], above 10 µM; in assay [14] it was above 30 µM. Further, the AC50 in assay [7] is above 30 µM; in [8], above 10 µM; in assay [9], 2.9 µM; in assay [10], above 30 µM; in assay [11], above 30 µM; in assay [12], 6.5 µM.

Regarding `CCS(=O)(=O)N1CC(CC#N)(n2cc(-c3ncnc4[nH]ccc34)cn2)C1` [BARICITINIB], the AC50 in assay [13] is above 30 µM.

For the compound `O=C1CCC(N2C(=O)c3ccccc3C2=O)C(=O)N1` (configuration not stated) [THALIDOMIDE], the half-maximal activity concentration (AC50) was above 30 µM in [1]; above 10 µM in assay [2]; above 10 µM in assay [3]; above 30 µM in [4]; above 10 µM in assay [6]; above 30 µM in [14]. For the same compound, the AC50 in [7] is above 30 µM; in assay [8], above 10 µM; in assay [10] it was above 30 µM; in [11], above 30 µM; in [12], above 30 µM.

Consider `CN(C)[C@@H]1C(O)=C(C(N)=O)C(=O)[C@@]2(O)C(O)=C3C(=O)c4c(O)ccc(Cl)c4[C@@H](O)[C@H]3C[C@@H]12` [DEMECLOCYCLINE], for which the AC50 in assay [1], in [2], in [3], in [4], in [5] and in assay [6] was above 10 µM in each case. Besides, the AC50 in assay [7] is above 10 µM; in assay [8], above 10 µM; in assay [10], above 10 µM; in [11], above 10 µM; in assay [12] it was above 30 µM.

Take `NS(=O)(=O)c1cc(Cl)c(Cl)c(S(N)(=O)=O)c1` [DICHLORPHENAMIDE]: the AC50 in assay [1], in assay [2], in assay [3], in [4], in assay [5] and in assay [6] was above 10 µM in each case. In addition, the AC50 in assay [7] is above 10 µM; in assay [8], above 10 µM; in [10], above 10 µM; in [11], above 10 µM; in assay [12] it was above 30 µM.

In [13], `NCc1ccccc1CC(=O)N[C@@H]1C(=O)N2C(C(=O)O)=C(CSc3nnnn3CC(=O)O)CS[C@H]12` [CEFORANIDE] yielded an AC50 above 30 µM.

For the compound `C=C1C[C@@H]2[C@H](CC[C@]3(C)C(=O)CC[C@@H]23)[C@@]2(C)C=CC(=O)C=C12` [EXEMESTANE], the AC50 in [1] was above 30 µM; in assay [2] it was above 30 µM; in [3], above 10 µM; in assay [4], above 30 µM; in [5], above 10 µM; in assay [6] it was above 10 µM. Further, the half-maximal activity concentration (AC50) is above 30 µM in assay [14]; above 30 µM in assay [7]; above 10 µM in assay [8]; above 30 µM in [10]; above 30 µM in [11]; above 30 µM in assay [12].

Regarding `O=C(Nc1ccccc1)OCC(CN1CCCCC1)OC(=O)Nc1ccccc1` (configuration not stated) [DIPERODON], the AC50 was above 30 µM in assay [1]; above 10 µM in [2]; 15 µM in assay [4]; above 10 µM in assay [6]; above 30 µM in assay [14]; above 30 µM in assay [7]. Moreover, the concentration at half-maximal activity (AC50) is above 10 µM in assay [8]; 4.1 µM in assay [9]; above 30 µM in [10]; above 30 µM in assay [11]; 1.8 µM in assay [12].

Take `C[N+](C)(C)CCOC(N)=O` [CARBAMOYLCHOLINE]: the AC50 in assay [1], in assay [2], in [3], in assay [4], in assay [5] and in assay [6] was above 10 µM each time. In addition, the concentration at half-maximal activity (AC50) in assay [7] is above 10 µM; in assay [8], above 10 µM; in assay [9] it was above 30 µM; in [10] it was above 10 µM; in assay [11], above 10 µM; in assay [12], above 30 µM.

Compound `COc1cc(NCc2ccc3nc(N)nc(N)c3c2C)cc(OC)c1OC` [TRIMETREXATE] showed an AC50 in [13] above 30 µM.

For orientation: AC50 means the concentration at which the activity in the assay is half-maximal.
